From US20200339548A1, “PYRIMIDINE DERIVATIVES AND THEIR USE FOR THE TREATMENT OF CANCER” (Adorx Therapeutics Limited, priority 2017, published 2020) come the findings set out here.

SMILES strings stand for the structures. pKi: −log10 of the molar value.

Assay [1] deals with T1, Adenosine A1 receptor (Homo sapiens, UniProt P30542).
T1 construct: expressed in transfected cells; host or cells: CHO cell membranes
T1 sequence (P30542 1-326): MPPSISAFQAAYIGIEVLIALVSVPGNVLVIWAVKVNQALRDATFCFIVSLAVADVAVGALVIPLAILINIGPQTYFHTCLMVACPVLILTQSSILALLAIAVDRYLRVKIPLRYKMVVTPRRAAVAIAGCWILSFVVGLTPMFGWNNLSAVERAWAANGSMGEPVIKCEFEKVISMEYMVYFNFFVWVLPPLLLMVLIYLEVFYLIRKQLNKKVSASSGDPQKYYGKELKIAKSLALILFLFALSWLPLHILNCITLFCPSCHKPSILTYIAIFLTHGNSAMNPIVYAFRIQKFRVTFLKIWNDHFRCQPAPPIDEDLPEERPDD
Description: Adenosine receptor TR-FRET binding assay, A1. Conditions: Table 9, further testing; displacement of 100 nM CA200645, CHO cell membranes. The protocol: (§1) All FRET binding experiments were conducted at room temperature in white 384-well plates, in assay binding buffer containing 1× LabMed (Cisbio, France), 100 μg/mL saponin, 1% DMSO and 0.02% pluronic acid. Binding of the fluorescently labelled Adenosine receptor antagonist XAC (CA200645, FRET acceptor) to terbium-labelled A1, A2a, A2b and A3 adenosine receptors (FRET donors) was detected by time-resolved FRET due to the close proximity of the donor and acceptor in a binding event. To investigate the ability of unlabelled test compounds to bind to Adenosine A1, A2a, A2b and A3 receptors, dose response curves were constructed that determined the ability of a range of concentrations to inhibit the binding of 30 nM CA200645 to the A2b receptor and 100 nM CA200645 to the A1, A2a, and A3 receptor.
(§2) Serial dilution (1:3 dilutions) of test compounds in neat DMSO and transfer of a 400 nL sample of test compound into the assay plate was carried out using the Mosquito (TTP Labtech, UK). The compound samples were incubated for 2 hours at room temperature with a fixed concentration of CA200645 defined for each receptor (see above) and CHO cell membranes containing the human Adenosine A1 (0.5 μg/well), A2a (0.3 μg/well), A2b (1 μg/well) or A3 (1 μg/well) receptor in 40 μL of assay buffer. Total and non-specific binding of CA200645 was determined in the absence and presence of 10 μM XAC, respectively.
(§3) Following 2 hours incubation, the level of CA200645 binding was detected on a Pherastar FSX (BMG Labtech, Germany) using standard TR-FRET settings. The terbium donor was excited with three laser flashes at a wavelength of 337 nm, and donor and acceptor emission was detected at 620 nm and 665 nm wavelengths, respectively. FRET ratios were obtained by multiplying the acceptor/donor ratio value by 10,000. Specific binding was determined by subtracting the non-specific binding FRET ratio from the total binding FRET ratio. Compound IC50 curves were analysed using GraphPad Prism 7.0 (GraphPad, USA) and Ki affinity values were determined from the obtained […] values using the method of Cheng and Prusoff.

For assay [2], the target named is T2, Adenosine A2a receptor (Homo sapiens, UniProt P29274).
T2 construct: expressed in transfected cells; host or cells: CHO cell membranes
T2 sequence (P29274 whole entry): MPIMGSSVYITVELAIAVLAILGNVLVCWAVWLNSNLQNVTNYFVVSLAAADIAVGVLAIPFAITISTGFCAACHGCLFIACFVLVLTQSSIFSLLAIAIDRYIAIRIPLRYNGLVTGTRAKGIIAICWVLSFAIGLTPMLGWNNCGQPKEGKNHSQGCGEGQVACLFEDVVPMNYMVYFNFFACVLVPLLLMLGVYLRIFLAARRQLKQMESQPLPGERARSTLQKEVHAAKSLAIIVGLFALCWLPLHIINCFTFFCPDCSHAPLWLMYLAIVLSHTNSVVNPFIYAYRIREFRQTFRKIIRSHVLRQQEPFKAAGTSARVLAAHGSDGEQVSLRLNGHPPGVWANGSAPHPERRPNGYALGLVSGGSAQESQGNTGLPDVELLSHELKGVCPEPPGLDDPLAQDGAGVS
Nature of the assay: Adenosine receptor TR-FRET binding assay, A2a. Particulars: displacement of 100 nM CA200645, CHO cell membranes. The protocol: as §1, §2, §3
For orientation: Time-resolved FRET reads energy transfer from a long-lived donor to a nearby acceptor.

For assay [3], the target named is T3, Adenosine A3 receptor (Homo sapiens, UniProt P0DMS8).
T3 construct: expressed in transfected cells; host or cells: CHO cell membranes
T3 sequence (P0DMS8 1-318): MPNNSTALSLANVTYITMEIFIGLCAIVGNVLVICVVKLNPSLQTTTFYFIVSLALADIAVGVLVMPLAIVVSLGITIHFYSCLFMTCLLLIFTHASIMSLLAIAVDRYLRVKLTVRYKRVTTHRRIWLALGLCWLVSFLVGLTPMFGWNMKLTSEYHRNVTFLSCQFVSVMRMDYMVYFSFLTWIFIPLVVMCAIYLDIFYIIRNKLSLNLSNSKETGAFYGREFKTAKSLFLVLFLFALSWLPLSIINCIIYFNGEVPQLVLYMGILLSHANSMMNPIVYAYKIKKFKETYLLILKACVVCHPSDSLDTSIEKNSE
Nature of the assay: Adenosine receptor TR-FRET binding assay, A3. Conditions: Table 9, further testing; displacement of 100 nM CA200645, CHO cell membranes; read-out: A3 Ki. The procedure: as §1, §2, §3

In assay [4] the target is T4, Adenosine A2b receptor (Homo sapiens, UniProt P29275).
T4 construct: expressed in transfected cells; host or cells: CHO cell membranes
T4 sequence (P29275 1-332): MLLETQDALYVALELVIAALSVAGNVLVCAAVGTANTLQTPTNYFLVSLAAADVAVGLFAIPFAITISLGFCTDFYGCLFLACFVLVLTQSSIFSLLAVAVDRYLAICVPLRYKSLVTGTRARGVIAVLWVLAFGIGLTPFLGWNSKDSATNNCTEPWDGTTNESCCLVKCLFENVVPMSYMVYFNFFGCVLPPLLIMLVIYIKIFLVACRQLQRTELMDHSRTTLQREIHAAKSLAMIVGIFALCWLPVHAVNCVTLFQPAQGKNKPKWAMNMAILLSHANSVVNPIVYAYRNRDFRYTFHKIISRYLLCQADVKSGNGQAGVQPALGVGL
Nature of the assay: Adenosine receptor TR-FRET binding assay, A2b. Conditions: Table 9, further testing; displacement of 30 nM CA200645, CHO cell membranes. The procedure:
as §1, §2, §3

On to `Nc1nc(-c2ccco2)ncc1C(=O)N[C@H](CO)c1ccccc1` [Example 5.61, 4-Amino-2-(2-furyl)-N-[(1S)-2-hydroxy-1-phenyl-ethyl]pyrimidine-5-carboxamide], for which the pKi in assay [1] is 5.39; in assay [2] (Table 9, further testing), 7.27; in assay [3] it was 5.83.
As to `Cc1cccnc1CNC(=O)c1cnc(-c2ccc(F)cc2)nc1N` [Example 14, 4-Amino-2-(4-fluorophenyl)-N-[(3-methyl-2-pyridyl)methyl]pyrimidine-5-carboxamide], the pKi in assay [1] was 6.13; in assay [2] (Table 8, Cheng and Prusoff) it was 6.13; in assay [2] (Table 9, further testing), 6.13; in assay [3], 6.69.
Consider `COc1cccc(CNC(=O)c2cnc(-c3cccc(F)c3)nc2N)c1OC` [Example 10.10, 4-Amino-N-[(2,3-dimethoxyphenyl)methyl]-2-(3-fluorophenyl)pyrimidine-5-carboxamide], for which the pKi in assay [4] was 6.42; in assay [2] (Table 8, Cheng and Prusoff), 7.02; in assay [2] (Table 9, further testing), 7.02.
Regarding `Nc1nc(-c2ccco2)ncc1C(=O)NCc1cc2ccccc2cn1` [Example 5.36, 4-Amino-2-(2-furyl)-N-(3-isoquinolylmethyl) pyrimidine-5-carboxamide], the pKi in assay [4] was 6.01; in assay [1], 5.57; in assay [2] (Table 9, further testing), 7.85.
Consider `Nc1nc(-c2cccc(F)c2)ncc1C(=O)NCc1c(F)cccc1F` [Example 5.4, 4-Amino-N-[(2,6-difluorophenyl)methyl]-2-(3-fluorophenyl)pyrimidine-5-carboxamide], for which the pKi is 6.86 in assay [4]; 7.30 in assay [2] (Table 8, Cheng and Prusoff); 7.30 in assay [2] (Table 9, further testing).
`Cc1cccnc1CNC(=O)c1c(N)nc(-c2ccco2)nc1OCCN1CCNCC1` [Example 23.2, 4-Amino-2-(2-furyl)-N-[(3-methyl-2-pyridyl)methyl]-6-(2-piperazin-1-ylethoxy)pyrimidine-5-carboxamide]: the pKi in assay [1] is 5.12; in assay [2] (Table 9, further testing) it was 6.54; in assay [3] it was 5.17.
For `CC(C)n1ncnc1CNC(=O)c1c(N)nc(-c2cccc(C#N)c2)nc1OCCF` [Example 24.4, 4-Amino-2-(3-cyanophenyl)-6-(2-fluoroethoxy)-N-[(2-isopropyl-1,2,4-triazol-3-yl)methyl]pyrimidine-5-carboxamide] the same measures were 7.66, 8.97 and 6.21.
In the case of `CCOc1cccnc1CNC(=O)c1cnc(-c2cccc(F)c2)nc1N` [Example 5.8, 4-Amino-N-[(3-ethoxy-2-pyridyl)methyl]-2-(3-fluorophenyl)pyrimidine-5-carboxamide], the pKi is 6.17 in assay [4]; 7.68 in assay [2] (Table 8, Cheng and Prusoff); 7.68 in assay [2] (Table 9, further testing).
Consider `Nc1nc(-c2cccc(F)c2)ncc1C(=O)NCc1ccccc1F` [Example 5.1, 4-Amino-2-(3-fluorophenyl)-N-[(2-fluorophenyl)methyl]pyrimidine-5-carboxamide], for which the pKi in assay [4] was 6.76; in assay [2] (Table 8, Cheng and Prusoff) it was 7.05; in assay [2] (Table 9, further testing), 7.05.
For `Cc1cccnc1CNC(=O)c1c(N)nc(-c2cccc(C#N)c2)nc1OCCF` [Example 24.8, 4-Amino-2-(3-cyanophenyl)-6-(2-fluoroethoxy)-N-[(3-methyl-2-pyridyl)methyl]pyrimidine-5-carboxamide], the pKi in assay [1] is 8.42; in assay [2] (Table 9, further testing), 10.00; in assay [3], 7.55.
On to `Nc1nc(-c2cccc(F)c2)ncc1C(=O)NCCc1ccccc1` [Example 4.1, 4-Amino-2-(3-fluorophenyl)-N-(2-phenylethyl)pyrimidine-5-carboxamide], for which the pKi was 5.76 in assay [4]; 6.85 in assay [2] (Table 8, Cheng and Prusoff); 6.85 in assay [2] (Table 9, further testing).
As for `Nc1nc(-c2cccc(F)c2)ncc1C(=O)Nc1ccccc1` [Example 4.2, 4-Amino-2-(3-fluorophenyl)-N-phenyl-pyrimidine-5-carboxamide], the pKi in assay [4] was 5.09; in assay [2] (Table 8, Cheng and Prusoff) it was 6.95; in assay [2] (Table 9, further testing), 6.95.
Turning to `Nc1nc(-c2ccco2)ncc1C(=O)NCc1nccc(C(F)(F)F)n1` [Example 5.59, 4-Amino-2-(2-furyl)-N-[[4-(trifluoromethyl)pyrimidin-2-yl]methyl]pyrimidine-5-carboxamide], the pKi in assay [2] (Table 9, further testing) is 6.63; in assay [3] it was 5.34.
For the molecule `Nc1nc(-c2cccc(F)c2)ncc1C(=O)NCc1ccccc1` [Example 4, 4-Amino-N-benzyl-2-(3-fluorophenyl)pyrimidine-5-carboxamide], the pKi was 5.92 in assay [4]; 7.13 in assay [2] (Table 8, Cheng and Prusoff); 7.12 in assay [2] (Table 9, further testing).
For `Nc1nc(-c2cccc(F)c2)ncc1C(=O)NCc1ccccn1` [Example 5.9, 4-Amino-2-(3-fluorophenyl)-N-(2-pyridylmethyl)pyrimidine-5-carboxamide] the same measures were 6.71, 7.12 and 7.12.
As for `Nc1nc(-c2ccco2)ncc1C(=O)NCc1ccc2[nH]ccc2c1` [Example 5.41, 4-Amino-2-(2-furyl)-N-(1H-indol-5-ylmethyl) pyrimidine-5-carboxamide], the pKi in assay [4] is 5.96; in assay [1], 5.32; in assay [2] (Table 9, further testing) it was 7.28.
For the molecule `Cc1cccnc1CNC(=O)c1cnc(-c2nccs2)nc1N` [Example 16.1, 4-Amino-N-[(3-methyl-2-pyridyl)methyl]-2-thiazol-2-yl-pyrimidine-5-carboxamide], the pKi in assay [4] was 5.14; in assay [2] (Table 9, further testing) it was 7.40.
Consider `COc1cccc(CNC(=O)c2cnc(-c3ccco3)nc2N)c1OC` [Example 5.38, 4-Amino-N-[(2,3-dimethoxyphenyl)methyl]-2-(2-furyl)pyrimidine-5-carboxamide], for which the pKi is 5.63 in assay [4] and 7.70 in assay [2] (Table 9, further testing).
For `CC(C)n1ccnc1CNC(=O)c1cnc(-c2ccco2)nc1N` [Example 5.33, 4-Amino-2-(2-furyl)-N-[(1-isopropylimidazol-2-yl)methyl]pyrimidine-5-carboxamide] the same measures were 5.18 and 8.03.
With `Nc1nc(-c2cccc(F)c2)ncc1C(=O)NCCc1ccc(O)cc1` [Example 5.7, 4-Amino-2-(3-fluorophenyl)-N-[2-(4-hydroxyphenyl)ethyl]pyrimidine-5-carboxamide], the pKi in assay [4] is 5.49; in assay [2] (Table 8, Cheng and Prusoff) it was 6.30; in assay [2] (Table 9, further testing), 6.30.
On to `COc1cccc(OC)c1CNC(=O)c1cnc(-c2ccco2)nc1N` [Example 5.31, 4-Amino-N-[(2,6-dimethoxyphenyl)methyl]-2-(2-furyl)pyrimidine-5-carboxamide], for which the pKi in assay [4] was 5.37; in assay [1], 5.82; in assay [2] (Table 9, further testing), 8.92.

One may read the pKi as the Ki on a negative log10 scale, so that one unit is a factor of ten.
